According to patent publication US4624950A, “Method for treating atherosclerosis hyperlipidema, lipid deposition on arterial walls, or raising the ratio of high density lipoprotein cholesterol to total cholesterol in serum” (Nissan Chemical Industries Ltd., priority 1983, dated 1986):

How the values were obtained:
[1] = system: Triton-induced hyperlipidemic rats; experiment: Antihyperlipidemic activity in Triton-induced hyperlipidemic rats, method B (43 hours) (Test 2); type: in vivo, rat (male S.D.)
Procedure: (§1) Cholesterol in serum was measured by means of a cholesterol measuring kit (Cholesterol C-Test Wako, manufactured by Wako Junyaku Co., Ltd.), and cholesterol in HDL was measured by means of NC Hi-Set, manufactured by Nippon Chemiphar Co., Ltd. The quantitative analysis of triglyceride was conducted by means of a triglyceride measuring kit (Triglyceride C-II-Test Wako, manufactured by Wako Junyaku Co., Ltd.). Further, the change rate in the following Tables, was calculated by the following equation. Change rate(%)=(A-B/A)×100 where A is the amount of serum lipids (mg/dl) of the control group, and B is the amount of serum lipids (mg/dl) of the group to which the therapeutic agent was administered. The antihyperlipidemic activity in Triton-induced hyperlipidemic rats Male S.D. rats weighing 230-250 g (7 weeks old) were divided into groups of 5 rats each and injected with a physiological saline solution of Triton Wr-1339 in a dose of 250 mg/kg (5 ml/kg) i.v. through the tail vein. […] The test compounds suspended in 0.5% CMC-Na were given to the rats in an amount of 2 ml/kg via stomach tube 1 hour before and 5 hours after (in the case of method A) or 1 hour before and 23 hours after (in the case of method B) the injection of Triton solution. Control rats received the same volume of the vehicle. The animals were fasted during the experimental period. The total cholesterol and triglyceride in the serum were measured.

[2] = system: Triton-induced hyperlipidemic rats; experiment: Antihyperlipidemic activity in Triton-induced hyperlipidemic rats, method A (24 hours) (Test 2); type: in vivo, rat (male S.D.)
Procedure: as §1

[3] = system: cholesterol-fed hyperlipidemic rats; experiment: Antihyperlipidemic activity in cholesterol-fed hyperlipidemic rats (Test 3); type: in vivo, rat (male S.D.)
Procedure: (§2) It is administered from once to three times per day. The dose may of course be varied depending upon the age, the weight or the condition of illness of the patient. […] In the following tests, the fractionation of lipoproteins was conducted by a dextran sulfate-MgCl2 precipitation method.
(§3) Cholesterol in serum was measured by means of a cholesterol measuring kit (Cholesterol C-Test Wako, manufactured by Wako Junyaku Co., Ltd.), and cholesterol in HDL was measured by means of NC Hi-Set, manufactured by Nippon Chemiphar Co., Ltd. The quantitative analysis of triglyceride was conducted by means of a triglyceride measuring kit (Triglyceride C-II-Test Wako, manufactured by Wako Junyaku Co., Ltd.).
(§4) Further, the change rate in the following Tables, was calculated by the following equation.
Change rate(%)=(A-B/A)×100 where A is the amount of serum lipids (mg/dl) of the control group, and B is the amount of serum lipids (mg/dl) of the group to which the therapeutic agent was administered.
The antihyperlipidemic activity in cholesterol-fed hyperlipidemic rats
Male S.D. rats weighing 80-90 g (30 days old) were divided into groups of 5 rats each. The test compounds suspended in 0.5% CMC-Na were given to the rats in a daily dose of 0.4 ml per 100 g rat via stomach tube every 10:00 a.m. for 7 or 14 days. Control groups were given an equal volume of the vehicle. […] The total cholesterol, triglyceride and HDL cholesterol in serum were measured. After sacrificed, the livers were excised, washed with physiological saline, blotted on filter paper and weighed. The degree of hepatomegaly was calculated by the following equation.
Degree of hepatomegaly (%)=(D-C/C)×100 where C is the liver weight (g) per 100 g body weight in the control animal, and D is the liver weight (g) per 100 g body weight in the drug treated animal.

[4] = reported for the agent and its derivatives; cited from earlier work
[5] = system: normal rats; experiment: Activities against serum lipid, degree of hepatomegaly and GOT/GPT in normal rats (Test 5); type: in vivo, rat (male S.D.); settings: 300 mg/kg/day, seven days
Procedure: as §2, §3, §4
(§5) Change rate(%)=(A-B/A)×100
(§6) where A is the amount of serum lipids (mg/dl) of the control group, and B is the amount of serum lipids (mg/dl) of the group to which the therapeutic agent was administered.
The activities against serum lipid, the degree of hepatomegaly and the hepatic drug metabolizing systems of normal rats
Male S.D. rats (6 weeks old) were divided into groups of 5 rats each. The test compounds suspended in 5% gum arabic were given to the rats once a day for seven days in a daily dose of 300 mg/kg. Then, the rats were fasted for one day, blood samples were taken, and the total cholesterol, triglyceride, HDL-cholesterol in the serum were quantitatively analyzed. Further, the liver weight was measured, and the degree of hepatomegaly was determined by comparing the weight ratio per 100 g of the body weight with that of the control group. Furthermore, GOT and GPT values were measured, and the activities of cytochrome P-450 and glutathione related enzymes were also measured. These values were compared with those of the control groups to investigate any abnormality.

[6] = system: emulsion-induced hyperlipidemic rats; experiment: Antihyperlipidemic activity in emulsion-induced hyperlipidemic rats (Test 1); type: in vivo, rat (male S.D.); settings: 300 mg/kg/day p.o., 3 days
Procedure: The daily dose of the compound of the formula I is from 0.01 to 3.0 g, preferably from 0.1 to 1.5 g, for an adult. It is administered from once to three times per day. The dose may of course be varied depending upon the age, the weight or the condition of illness of the patient. Now, the usefulness of the compound of the formula I as an antiatherosclerotic agent will be shown by tests. In the following tests, the fractionation of lipoproteins was conducted by a dextran sulfate-MgCl2 precipitation method.
as §3, §4, §5, §6
The antihyperlipidemic activity in emulsion-induced hyperlipidemic rats
Male S.D. rats weighing 80-90 g (4 weeks old) were used. They were divided into groups of 5 to 6 rats each. The test compounds suspended in 0.5% CMC-Na(carboxymethyl cellulose sodium salt) were given to the rats in a daily dose of 4 ml/kg via stomach tube every 10:00 a.m. After 30 min., lipids emulsion having the following composition was orally given to the rats in an amount of 2.5 ml per rat. During the experimental period of 3 days, the rats were fed on a standard commercial diet and water ad libitum. […] The total cholesterol and triglyceride, and HDL cholesterol were measured.

[7] = animal experiments; Svoboda and Azarnoff, Cancer Res. 39, 3419 (1979); cited from earlier work

## CCC(C)(Oc1ccc(C2(c3ccc(OC(C)(CC)C(=O)O)cc3)CCCCC2)cc1)C(=O)O (stereo not shown) [Clinofibrate]
[1]; 150 mg/kg p.o.
  Change rate after 43 hours, Chol: -38.0%
  Change rate after 43 hours, TG: -52.0%
[2]; 150 mg/kg p.o.
  Change rate after 24 hours, Chol: -21.0%
  Change rate after 24 hours, TG: -33.0%

## CCOC(=O)C(C)(C)Oc1ccc(Cl)cc1 [Clofibrate, reference compound]
[3]; 7th day, 50 mg/kg/day p.o.
  Change rate, HDL-Chol: -20.4%
  Change rate, TG: +8.7%
  Change rate, Total-Chol: -4.3%
  Degree of hepatomegaly: +6.0%
  Serum lipid, HDL-Chol: 14.4 mg/dL
  Serum lipid, TG: 133.5 mg/dL
  Serum lipid, Total-Chol: 417.5 mg/dL
[3]; 7th day, 150 mg/kg/day p.o.
  Change rate, HDL-Chol: -34.8%
  Change rate, TG: -9.0%
  Change rate, Total-Chol: -23.8%
  Degree of hepatomegaly: +20.0%
  Serum lipid, HDL-Chol: 11.8 mg/dL
  Serum lipid, TG: 111.8 mg/dL
  Serum lipid, Total-Chol: 332.2 mg/dL
[3]; 14th day, 50 mg/kg/day p.o.
  Change rate, HDL-Chol: +8.0%
  Change rate, TG: -30.1%
  Change rate, Total-Chol: -28.5%
  Degree of hepatomegaly: +8.8%
  Serum lipid, HDL-Chol: 9.4 mg/dL
  Serum lipid, TG: 116.6 mg/dL
  Serum lipid, Total-Chol: 418.4 mg/dL
[3]; 14th day, 150 mg/kg/day p.o.
  Change rate, HDL-Chol: +68.1%
  Change rate, TG: -29.8%
  Change rate, Total-Chol: -28.3%
  Degree of hepatomegaly: +22.8%
  Serum lipid, HDL-Chol: 15.8 mg/dL
  Serum lipid, TG: 117.7 mg/dL
  Serum lipid, Total-Chol: 420.0 mg/dL
[4]
  Reported side effects: myalgia or hepatic insufficiency, and they are likely to lead to gallstone formation
[5]
  Serum lipid, HDL-Chol: 11.0 mg/dL
  Serum lipid, TG: 39.2 mg/dL
  Serum lipid, Total-Chol: 20.6 mg/dL
[5]; vs control
  Change rate, HDL-Chol: -62.7%
  Change rate, TG: -17.5%
  Change rate, Total-Chol: -56.0%
  Degree of hepatomegaly: +72.0%
[1]; 300 mg/kg p.o.
  Change rate after 43 hours, Chol: -0.5%
  Change rate after 43 hours, TG: +150.1%
[6]
  Serum lipid, HDL-Chol: 16.8 mg/dL
  Serum lipid, TG: 87.7 mg/dL
  Serum lipid, Total Chol: 96.4 mg/dL
[6]; vs control
  Change rate, HDL-Chol: +37.0%
  Change rate, TG: -42.7%
  Change rate, Total Chol: -63.5%
[2]; 300 mg/kg p.o.
  Change rate after 24 hours, Chol: -5.0%
  Change rate after 24 hours, TG: +89.7%
[7]
  Hepatic carcinoma: brings about hepatic carcinoma

## O=C(O)c1cccnc1 [nicotinic acid]
[4]
  Reported side effects: flashing or gastroenteric troubles
